Results on 28 compounds are retold here after patent publication US8134015B2, “Compound inhibiting in vivo phosphorous transport and medicine containing the same” (Kyowa Hakko Kirin Co., Ltd., priority 2003, dated 2012).

SMILES strings stand for the structures. Where a name gives a salt, the structure may show the parent alone.

One assay addresses T1, rat NaPi-2b (Rattus norvegicus, UniProt Q9JJ09).
T1 construct: expressed in transfected cells; host or cells: Xenopus oocytes injected with cRNA
T1 sequence (Q9JJ09 1-695): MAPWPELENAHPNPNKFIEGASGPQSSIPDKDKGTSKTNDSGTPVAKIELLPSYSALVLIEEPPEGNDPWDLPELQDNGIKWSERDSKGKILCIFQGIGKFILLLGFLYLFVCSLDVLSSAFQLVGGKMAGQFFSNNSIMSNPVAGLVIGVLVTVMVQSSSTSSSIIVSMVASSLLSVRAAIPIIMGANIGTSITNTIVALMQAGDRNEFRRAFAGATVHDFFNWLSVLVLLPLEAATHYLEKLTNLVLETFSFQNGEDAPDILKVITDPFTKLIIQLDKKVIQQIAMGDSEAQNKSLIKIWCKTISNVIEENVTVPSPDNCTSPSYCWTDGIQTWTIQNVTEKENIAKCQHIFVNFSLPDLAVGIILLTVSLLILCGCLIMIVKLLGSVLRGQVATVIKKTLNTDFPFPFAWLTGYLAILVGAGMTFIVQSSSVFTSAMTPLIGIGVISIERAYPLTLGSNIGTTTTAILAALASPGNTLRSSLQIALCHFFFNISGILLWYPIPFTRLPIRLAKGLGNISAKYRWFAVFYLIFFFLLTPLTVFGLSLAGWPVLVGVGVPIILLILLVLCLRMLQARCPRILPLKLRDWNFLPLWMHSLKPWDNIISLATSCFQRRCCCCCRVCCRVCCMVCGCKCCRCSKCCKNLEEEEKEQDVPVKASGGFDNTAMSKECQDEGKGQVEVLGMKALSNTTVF
Description: Sodium-dependent phosphate uptake of Xenopus oocytes which expressed NaPi-2b (32P). The format is cell-based. The note with it: Xenopus oocytes expressing rat NaPi-2b, 32P radioactive phosphorus; read-out: IC50 (phosphate uptake inhibitory activity). A digest of the protocol: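 Rat NaPi-2b cloned from small-intestine cDNA; cRNA injected into Xenopus oocytes, expression for 2 days. Phosphate uptake inhibition measured with 32P; percent inhibition at 300 μM and 100 μM read from the same inhibition curve.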
With `Cc1ccc(/C=N/NC(=O)c2ccsc2NC(=O)c2cccc(CSCCCO)c2)cc1C` [Compound 658, N-[3-(3,4-Dimethyl-benzylidene-hydrazinocarbonyl)-thiophen-2-yl]-3-(3-hydroxy-propylsulfanylmethyl)-benzamide], the 50% inhibitory concentration (IC50) was under 3 µM.

With `CC(O)CN(Cc1cccc(C(=O)Nc2ccc(OCC(O)CN3CCOCC3)cc2C(=O)N/N=C/c2ccc(Cl)c(C(F)(F)F)c2)c1)CC(C)O` (stereo not shown) [Compound 954, 3-{[Bis-(2-hydroxy-propyl)-amino]-methyl}-N-[2-(4-chloro-3-trifluoromethyl-benzylidene-hydrazinocarbonyl)-4-(2-hydroxy-3-morpholin-4-yl-propoxy)-phenyl]-benzamide], the concentration for half-maximal inhibition (IC50) was 60.5 µM.

Turning to `CCc1ccc(C(=O)Nc2ccc(Br)cc2C(=O)N/N=C/c2ccc(Cl)c(C(F)(F)F)c2)cc1` [Compound 183, N-[4-Bromo-2-(4-chloro-3-trifluoromethyl-benzylidene-hydrazinocarbonyl)-phenyl]-4-ethyl-benzamide], the IC50 is under 3 µM.

Turning to `Cc1csc(NC(=O)c2cccc(CN(CC(C)O)CC(C)O)c2)c1C(=O)N/N=C/c1ccc(Cl)c(C(F)(F)F)c1` (stereo not shown) [Compound 851, 3-{[Bis-(2-hydroxy-propyl)-amino]-methyl}-N-[3-(4-chloro-3-trifluoromethyl-benzylidene-hydrazinocarbonyl)-4-methyl-thiophen-2-yl]-benzamide; hydrochloride], the IC50 is 1.36 µM.

As to `COc1ccc(C(=O)Nc2ccccc2C(=O)N/N=C/c2cccs2)cc1OC` [Compound 23, 3,4-Dimethoxy-N-[2-(thiophen-2-ylmethylene-hydrazinocarbonyl)-phenyl]-benzamide], the 50% inhibitory concentration (IC50) turned out to be 9.88 µM.

As to `O=C(Nc1ccc(Br)cc1C(=O)N/N=C/c1ccc(Cl)c(C(F)(F)F)c1)c1ccno1` [Compound 513, Isoxazole-5-carboxylic acid [4-bromo-2-(4-chloro-3-trifluoromethyl-benzylidene-hydrazinocarbonyl)-phenyl]-amide], the IC50 is 16 µM.

As to `Cc1cccc(/C=N/NC(=O)c2cc(Br)ccc2NC(=O)c2cccs2)c1` [Compound 159, Thiophene-2-carboxylic acid [4-bromo-2-(3-methyl-benzylidene-hydrazinocarbonyl)-phenyl]-amide], the IC50 was 4.35 µM.

For `O=C(Nc1ccc(Br)cc1C(=O)N/N=C/c1cccc(F)c1)c1ccc(CSCCO)cc1` [Compound 261, N-[4-Bromo-2-(3-fluoro-benzylidene-hydrazinocarbonyl)-phenyl]-4-(2-hydroxy-ethylsulfanylmethyl)-benzamide], the half-maximal inhibitory concentration (IC50) was under 3 µM.

Take `Cc1ccc(/C=N/NC(=O)c2cc(Br)ccc2NC(=O)c2ccc(C)cc2)cc1` [Compound 494, N-[4-Bromo-2-(4-methyl-benzylidene-hydrazinocarbonyl)-phenyl]-4-methyl-benzamide]: the half-inhibitory concentration (IC50) stood at 2.07 µM.

In the case of `CC(O)CN(Cc1cccc(C(=O)Nc2sc3c(c2C(=O)N/N=C/c2ccc(Cl)c(C(F)(F)F)c2)CCC3)c1)CC(C)O` (stereo not shown) [Compound 808, 3-{[Bis-(2-hydroxy-propyl)-amino]-methyl}-N-[3-(4-chloro-3-trifluoromethyl-benzylidene-hydrazinocarbonyl)-5,6-dihydro-4H-cyclopenta[b]thiophen-2-yl]-benzamide], the IC50 amounted to 1.97 µM.

With `COc1ccc(C(=O)Nc2ccc(Br)cc2C(=O)N/N=C/c2ccccc2Br)cc1OC` [Compound 14, N-[4-Bromo-2-(2-bromo-benzylidene-hydrazinocarbonyl)-phenyl]-3,4-dimethoxy-benzamide], the 50% inhibitory concentration (IC50) is 12.1 µM.

Take `CCN(CC)CCN(C)Cc1cccc(C(=O)Nc2ccc(Cl)cc2C(=O)N/N=C/c2ccc(C)cc2)c1` [Compound 382, N-[4-Chloro-2-(4-methyl-benzylidene-hydrazinocarbonyl)-phenyl]-3-{[(2-diethylamino-ethyl)-methyl-amino]-methyl}-benzamide]: the IC50 was 1.04 µM.

As for `COc1ccc(C(=O)Nc2ccc(I)cc2C(=O)N/N=C/c2cccc(F)c2)cc1OC` [Compound 204, N-[2-(3-Fluoro-benzylidene-hydrazinocarbonyl)-4-iodo-phenyl]-3,4-dimethoxy-benzamide], the half-inhibitory concentration (IC50) was under 3 µM.

For `COc1cccc(/C=N/NC(=O)c2cc(Br)ccc2NC(=O)c2ccc(CN3CCC(CO)CC3)cc2)c1` [Compound 339, N-[4-Bromo-2-(3-methoxy-benzylidene-hydrazinocarbonyl)-phenyl]-4-(4-hydroxymethyl-piperidin-1-ylmethyl)-benzamide], the IC50 was found to be 12.8 µM.

As to `O=C(Nc1ccccc1C(=O)N/N=C/c1ccc(Cl)c(C(F)(F)F)c1)c1ccccn1` [Compound 508, Pyridin-2-carboxylic acid [2-(4-chloro-3-trifluoromethyl-benzylidene-hydrazinocarbonyl)-phenyl]-amide], the IC50 was determined as 0.48 µM.

With `CCOc1ccc(C(=O)Nc2ccc(Br)cc2C(=O)N/N=C/c2ccc(F)cc2)cc1` [Compound 502, N-[4-Bromo-2-(4-fluoro-benzylidene-hydrazinocarbonyl)-phenyl]-4-ethoxy-benzamide], the IC50 worked out at 15.7 µM.

On to `O=C(Nc1ccc(Cl)cc1C(=O)N/N=C/c1cccc(F)c1)c1cccnc1` [Compound 184, N-[4-Chloro-2-(3-fluoro-benzylidene-hydrazinocarbonyl)-phenyl]-nicotinamide], for which the IC50 is 4.01 µM.

As to `Cn1cccc1/C=N/NC(=O)c1ccccc1NC(=O)c1ccncc1` [Compound 210, N-[2-(1-Methyl-1H-pyrrol-2-ylmethylene-hydrazinocarbonyl)-phenyl]-isonicotinamide], the IC50 was 35 µM.

Turning to `O=C(Nc1ccccc1C(=O)N/N=C/c1ccc(O)cc1)c1cccc(F)c1` [Compound 86, 3-Fluoro-N-[2-(4-hydroxy-benzylidene-hydrazinocarbonyl)-phenyl]-benzamide], the half-inhibitory concentration (IC50) is 11.4 µM.

Take `CCN(CC)CCNCc1cccc(C(=O)Nc2scc(C)c2C(=O)N/N=C/c2ccc(C)c(C)c2)c1` [Compound 581, 3-[(2-Diethylamino-ethylamino)-methyl]-N-[3-(3,4-dimethyl-benzylidene-hydrazinocarbonyl)-4-methyl-thiophen-2-yl]-benzamide]: the concentration for half-maximal inhibition (IC50) is under 3 µM.

On to `COc1ccc(C(=O)Nc2ccccc2C(=O)N/N=C/c2cccc(Oc3cccc(C(F)(F)F)c3)c2)cc1OC` [Compound 54, 3,4-Dimethoxy-N-{2-[3-(3-trifluoromethyl-phenoxy)-benzylidene-hydrazinocarbonyl]-phenyl}-benzamide], for which the IC50 came out at 6.45 µM.

Regarding `CCN(CC)CCN(CCN(CC)CC)Cc1cccc(C(=O)Nc2sc3c(c2C(=O)N/N=C/c2ccc(Cl)c(C(F)(F)F)c2)CCCC3)c1` [Compound 849, 3-{[Bis-(2-diethylamino-ethyl)-amino]-methyl}-N-[3-(4-chloro-3-trifluoromethyl-benzylidene-hydrazinocarbonyl)-4,5,6,7-tetrahydro-benzo[b]thiophen-2-yl]-benzamide], the half-maximal inhibitory concentration (IC50) was under 3 µM.

Turning to `CCN(CC)CCN(C)Cc1cccc(C(=O)Nc2ccc(Cl)cc2C(=O)N/N=C/c2cccc(C)c2)c1` [Compound 381, N-[4-Chloro-2-(3-methyl-benzylidene-hydrazinocarbonyl)-phenyl]-3-{[(2-diethylamino-ethyl)-methyl-amino]-methyl}-benzamide], the IC50 was 1 µM.

As to `COc1ccc(C(=O)Nc2cc(OC)c(OC)cc2C(=O)N/N=C/c2ccccc2)cc1OC` [Compound 227, N-[2-(Benzylidene-hydrazinocarbonyl)-4,5-dimethoxy-phenyl]-3,4-dimethoxy-benzamide], the IC50 is 7.4 µM.

Staying with this assay, now noted: phosphate uptake, oocytes expressing rat NaPi-2b; 300 μM, determined from inhibition curve.
`CCN(CC)CCN(C)Cc1cccc(C(=O)Nc2ccc(Cl)cc2C(=O)N/N=C/c2ccc(OCC(=O)O)cc2)c1` [Compound 1000, (4-{[5-Chloro-2-(3-{[(2-diethylamino-ethyl)-methyl-amino]-methyl}-benzoylamino)-benzoyl]-hydrazinomethyl}-phenoxy)-acetic acid]: testing at 300 µM gave an inhibition of 32.1%.

`CCN1CC(NCc2ccc(-c3nc4ccc(Br)cc4c(=O)n3/N=C/c3ccc(OC)cc3)cc2)CN1CC` [Compound 755, 6-Bromo-2-{4-[(1,2-diethyl-pyrazolidin-4-ylamino)-methyl]-phenyl}-3-[(4-methoxy-benzylidene)-amino]-3H-quinazolin-4-one] displayed an inhibition at 300 µM of 67.3%.

`CC(C)(C)c1cccc(/C=N/NC(=O)c2ccccc2NC(=O)c2ccccc2F)c1O` [Compound 239, N-[2-(3-Tert-butyl-2-hydroxy-benzylidene-hydrazinocarbonyl)-phenyl]-2-fluoro-benzamide] gave an inhibition at 300 µM of 59.1%.

`COc1ccc(C(=O)Nc2ccccc2C(=O)N/N=C/c2ccc(-c3ccccc3)cc2)cc1OC` [Compound 233, N-[2-(Biphenyl-4-ylmethylene-hydrazinocarbonyl)-phenyl]-3,4-dimethoxy-benzamide] displayed an inhibition at 300 µM of 33.6%.
